From patent publication US20140213513A1 (Sanofi, priority 2012, published 2014)
*1 amine or outer side, *2 acyl side, *3 side chain or, on linkers, in order; H or OH if unused. Where a SMILES comes first, the peptide text is derived from it. Side-chain parts run from the residue outwards. [ ]: non-standard residue; d: D form. The star is where a group is joined. γGlu = O=C(O)[C@H](CCC(=O)[*:2])N[*:1]; Palmitoyl = CCCCCCCCCCCCCCCC(=O)*; Aib = CC(C)(N)C(=O)O

Legend:
Format in all cases: cell-based
Settings in all cases: Table 7; cAMP formation
[1] = target: T1, human glucagon receptor (hGLUC R) (Homo sapiens, UniProt P47871); experiment: cAMP response of HEK-293 cells stably expressing human glucagon receptor (HTRF)
T1 construct: expressed in transfected cells
Method in brief: (§1)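 Intracellular cAMP is quantified by HTRF following a 30-minute room-temperature incubation of cell suspensions (400000 cells/ml) with test compound in HBSS, 20 mM HEPES, 0.1% BSA and 2 mM IBMX.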

[2] = target: T2, human GIP receptor (hGIP R) (Homo sapiens, UniProt P48546); experiment: cAMP response of HEK-293 cells stably expressing human GIP receptor (HTRF)
T2 construct: expressed in transfected cells
T2 sequence (P48546 22-466): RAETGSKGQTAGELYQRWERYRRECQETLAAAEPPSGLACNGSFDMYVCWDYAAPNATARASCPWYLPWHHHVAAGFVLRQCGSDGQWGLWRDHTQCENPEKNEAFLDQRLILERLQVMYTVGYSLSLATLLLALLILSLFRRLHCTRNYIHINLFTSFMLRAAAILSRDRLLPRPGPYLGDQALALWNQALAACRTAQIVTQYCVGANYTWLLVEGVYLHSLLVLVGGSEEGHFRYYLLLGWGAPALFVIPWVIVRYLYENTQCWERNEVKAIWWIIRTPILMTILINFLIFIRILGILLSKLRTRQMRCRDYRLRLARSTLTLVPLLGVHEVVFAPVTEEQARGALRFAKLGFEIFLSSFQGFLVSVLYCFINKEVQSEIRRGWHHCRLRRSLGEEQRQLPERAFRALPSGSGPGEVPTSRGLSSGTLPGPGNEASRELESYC
Method in brief: as §1

[3] = target: T3, human GLP-1 receptor (hGLP-1 R) (Homo sapiens, UniProt P43220); experiment: cAMP response of HEK-293 cells stably expressing human GLP-1 receptor (HTRF)
T3 construct: expressed in transfected cells
Method in brief: as §1

T1 sequence (P47871 26-477): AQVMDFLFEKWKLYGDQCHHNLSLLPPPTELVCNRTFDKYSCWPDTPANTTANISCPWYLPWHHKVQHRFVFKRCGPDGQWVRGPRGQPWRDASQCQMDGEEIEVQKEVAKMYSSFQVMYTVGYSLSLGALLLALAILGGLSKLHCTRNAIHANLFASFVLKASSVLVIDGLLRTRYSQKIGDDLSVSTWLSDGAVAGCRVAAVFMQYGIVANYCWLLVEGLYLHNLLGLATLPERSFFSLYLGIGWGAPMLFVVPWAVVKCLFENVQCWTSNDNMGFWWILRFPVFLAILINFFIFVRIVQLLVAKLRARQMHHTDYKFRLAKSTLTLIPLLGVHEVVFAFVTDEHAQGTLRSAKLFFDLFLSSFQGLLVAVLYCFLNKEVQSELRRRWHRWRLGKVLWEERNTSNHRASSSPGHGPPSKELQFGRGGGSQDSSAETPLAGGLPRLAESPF
T3 sequence (P43220 24-463): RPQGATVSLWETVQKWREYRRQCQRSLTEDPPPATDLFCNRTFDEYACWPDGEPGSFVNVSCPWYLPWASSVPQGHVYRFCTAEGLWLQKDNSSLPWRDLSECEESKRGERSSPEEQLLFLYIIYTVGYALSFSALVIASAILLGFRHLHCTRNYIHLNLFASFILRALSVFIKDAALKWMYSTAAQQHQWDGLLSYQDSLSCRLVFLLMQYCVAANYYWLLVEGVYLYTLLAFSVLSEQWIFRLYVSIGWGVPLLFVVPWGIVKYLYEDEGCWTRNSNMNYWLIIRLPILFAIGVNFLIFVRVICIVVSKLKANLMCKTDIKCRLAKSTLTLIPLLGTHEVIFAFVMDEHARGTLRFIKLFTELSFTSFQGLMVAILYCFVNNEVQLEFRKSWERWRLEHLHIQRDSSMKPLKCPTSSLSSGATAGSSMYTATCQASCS

Compound | EC50 [1] [nM] | EC50 [2] [nM] | EC50 [3] [nM]
CCCCCCCCCCCCCCCC(=O)N[C@@H](CCC(=O)NCCCC[C@H](NC(=O)[C@H](CCC(N)=O)NC(=O)[C@@H](NC(=O)[C@H](CO)NC(=O)[C@H](CC(C)C)NC(=O)[C@H](CC(=O)O)NC(=O)[C@H](CO)NC(=O)[C@@H](NC(=O)[C@H](Cc1ccccc1)NC(=O)[C@@H](NC(=O)CNC(=O)[C@H](CCC(=O)O)NC(=O)C(C)(C)NC(=O)[C@@H](N)Cc1ccc(O)cc1)[C@@H](C)O)[C@@H](C)O)[C@@H](C)CC)C(=O)N[C@@H](CCC(=O)O)C(=O)N[C@@H](CCCCN)C(=O)N[C@@H](CCCNC(=N)N)C(=O)N[C@@H](C)C(=O)N[C@@H](C)C(=O)N[C@@H](Cc1c[nH]cn1)C(=O)N[C@@H](CCC(=O)O)C(=O)N[C@@H](Cc1ccccc1)C(=O)N[C@H](C(=O)N[C@@H](CCC(=O)O)C(=O)N[C@@H](Cc1c[nH]c2ccccc12)C(=O)N[C@@H](CC(C)C)C(=O)N[C@@H](CCCCN)C(=O)N[C@@H](CC(N)=O)C(=O)N[C@H](C(=O)NCC(=O)N1CCC[C@H]1C(=O)N[C@@H](CO)C(=O)N[C@@H](CO)C(=O)NCC(=O)N[C@@H](C)C(=O)N1CCC[C@H]1C(=O)N1CCC[C@H]1C(=O)N1CCC[C@H]1C(=O)N[C@@H](CO)C(N)=O)[C@@H](C)O)[C@@H](C)CC)C(=O)O [SEQ ID NO: 59, Y-Aib-E-G-T-F-T-S-D-L-S-I-Q-K(yE-x53)-EKRAAHEFIEWLKNTGPSSGAPPPS-NH2] (H-Y[Aib]EGTFTSDLSIQK([γGlu-Palmitoyl])EKRAAHEFIEWLKNTGPSSGAPPPS-NH2) | 12.3 | 0.0175 | 0.0075
CCCCCCCCCCCCCCCC(=O)N[C@@H](CCC(=O)NCCCC[C@H](NC(=O)[C@H](CCC(N)=O)NC(=O)[C@H](CCCCN)NC(=O)[C@H](CO)NC(=O)[C@H](CC(C)C)NC(=O)[C@H](CC(=O)O)NC(=O)[C@H](CO)NC(=O)[C@@H](NC(=O)[C@H](Cc1ccccc1)NC(=O)[C@@H](NC(=O)CNC(=O)[C@H](CCC(=O)O)NC(=O)C(C)(C)NC(=O)[C@@H](N)Cc1ccc(O)cc1)[C@@H](C)O)[C@@H](C)O)C(=O)N[C@@H](CC(=O)O)C(=O)N[C@@H](CCCCN)C(=O)N[C@@H](CCCNC(=N)N)C(=O)N[C@@H](C)C(=O)N[C@@H](C)C(=O)N[C@@H](CCC(N)=O)C(=O)N[C@@H](CC(=O)O)C(=O)N[C@@H](Cc1ccccc1)C(=O)N[C@H](C(=O)N[C@@H](CCC(=O)O)C(=O)N[C@@H](Cc1c[nH]c2ccccc12)C(=O)N[C@@H](CC(C)C)C(=O)N[C@@H](CCCCN)C(=O)N[C@@H](CC(N)=O)C(=O)NCC(=O)NCC(=O)N1CCC[C@H]1C(=O)N[C@@H](CO)C(=O)N[C@@H](CO)C(=O)NCC(=O)N[C@@H](C)C(=O)N1CCC[C@H]1C(=O)N1CCC[C@H]1C(=O)N1CCC[C@H]1C(=O)N[C@@H](CO)C(N)=O)[C@@H](C)CC)C(=O)O [SEQ ID NO: 30, Y-Aib-E-G-T-F-T-S-D-L-S-K-Q-K(yE-x53)-DKRAAQDFIEWLKNGGPSSGAPPPS-NH2] (H-Y[Aib]EGTFTSDLSKQK([γGlu-Palmitoyl])DKRAAQDFIEWLKNGGPSSGAPPPS-NH2) | 1.45 | 0.0163 | 0.005
